The test system of assay [1] is wild-type C57BL/6 mice. As to the kind of experiment: Scratching behavior induced by IL-31 after NK3R antagonist administration. The format is in vivo, mouse. The following applies: 45 minutes before intradermal IL-31 (1 μg/50 μl). As for the experimental part:
(§1) Prior to the experiments, mice were placed in an acrylic cage (11 cm×14 cm×20 cm) for at least 1 hour to acclimatize to the environment. Subsequently, 50 μL of a pruritus-inducing substance dissolved in sterilized physiological saline was injected intradermally into shoulders of the mice, and the behavior of these mice was videotaped. The total number of scratching behavior within a specified time was determined by playing the video. During the scratching behavior of a mouse, the mouse extends its hind leg to the itchy area, tilts its head toward the hind leg, quickly turns the hind leg several times, and returns the hind leg to the ground. These series of actions were counted as one scratching behavior. As pruritus-inducing substances. IL-31 (1 μg/50 μl; PeproTech Inc.). SLIGRL-NH2 (100 μg/50 μl; Bachem Holding AG), chloroquine (100 μg/50 μl; Wako Pure Chemical Industries.), and histamine (100 μg/50 μl; Wako Pure Chemical Industries.) were used.
(§2) In some experiments, the actions of NK3R antagonists on the scratching behavior of the mice were investigated. As compounds having activity as an NK3R antagonist or an NK3R antagonist, osanetant (Axon Medchem.), talnetant (NAMIKI SHOJI Co., Ltd.), pavinetant (NAMIKI SHOJI Co., Ltd.), fezolinetant (Haoyuan Chemexpress Co., Ltd.). SSR-146977 (Tocris Bioscience.), SSR-241586 (WuXi AppTec New Drug Development Co. Ltd.), SB-235375 (WuXi AppTec New Drug Development Co. Ltd.), and CS-003 (WuXi AppTec New Drug Development Co. Ltd.) were used. These compounds were administered to the mice in a predetermined amount per weight of each mouse 45 minutes before the intradermal injection of the pruritus-inducing substance. Osanetant was dissolved in phosphate buffered saline (PBS) containing 0.1% Tween-20 and intraperitoneally injected at 5 mg/kg. Talnetant and pavinetant were dissolved in a mixture of 10% dimethyl sulfoxide (DMSO), 40% polyethylene glycol 300, 5% Tween-80, and 45% saline and were intraperitoneally injected at 30 mg/kg. Fezolinetant was dissolved in PBS containing 10% DMSO and orally administered at 10 mg/kg. SSR-146977 was dissolved in PBS containing 0.1% ethanol and intraperitoneally injected at 0.3 mg/kg. SSR-241586 was dissolved in a 0.01% Tween-80 aqueous solution and intraperitoneally injected at 3 mg/kg. SB-235375 was dissolved in PBS and orally administered at 3 mg/kg. CS-003 was dissolved in PBS containing 5% glucose and intravenously injected at 3 mg/kg.
(§3) Similar to osanetant, fezolinetant that is a selective antagonist of NK3R was orally administered to wild-type C57BL/6 mice, and the effect on the scratching behavior induced by IL-31, histamine, or chloroquine was analyzed.
(§4) Furthermore, CS-003 that is an antagonist to neurokinin 3 receptor (NK3R) and also an antagonist to neurokinin 1 receptor (NK1R) and neurokinin 2 receptor (NK2R), and SSR-241586 that is an antagonist to NK3R and NK2R were administered to wild-type C57BL/6 mice, and then the effects of the compounds on the scratching behavior induced by IL-31 or chloroquine were analyzed.

Assay [2] concerns wild-type C57BL/6 mice. Briefly: Scratching behavior induced by chloroquine after NK3R antagonist administration. The format is in vivo, mouse. As to conditions: 45 minutes before intradermal chloroquine (100 μg/50 μl). As for the experimental part: as §1, §2, §3, §4
In assay [3] the test system is wild-type C57BL/6 mice. Briefly: Scratching behavior induced by histamine after NK3R antagonist administration. The format is in vivo, mouse. As to conditions: 45 minutes before intradermal histamine (100 μg/50 μl). As for the experimental part:
as §1
In some experiments, the actions of NK3R antagonists on the scratching behavior of the mice were investigated. […]
as §3

For assay [4], the system named is Grp mRNA. Briefly: Grp mRNA expression in stimulated DRG neurons in vitro. The format is cell-based, mouse. The following applies: DRG neurons from wild-type C57BL/6 mice stimulated with NKB in vitro; FIG. 4(b). As for the experimental part:
(§5) Total RNAs were extracted from each tissue using ISOGEN (NIPPON GENE CO., LTD.). Total RNAs were treated with RNase-free DNase I (Thermo Fisher Scientific K.K.). This RNA sample was reverse transcribed using an oligo (dT) primer (v) and SuperScript III reverse transcriptase (Thermo Fisher Scientific K.K.), and amplified by PCR. Real-time PCR was performed by Cfx Connect™ Thermal Cycler (Bio-Rad Laboratories, Inc.) using SYBR Green PCR Master Mix (Applied Biosystems). The expression level of the target gene was normalized by an expression level of Hprt gene. For the analysis, CFX Manager (ver3.1) attached to a device was used.
(§6) Changes in the expression levels of Tac2, Grp. and Nppb through administration of IL-31 or NKB were analyzed. First. DRG neurons isolated from the wild-type C57BL/6 mice were stimulated by the addition of the IL-31 protein in vitro, and the expression levels of Tac2 mRNA, Grp mRNA, and Nppb mRNA were analyzed.
(§7) Next, DRG neurons isolated from the wild-type C57BL/6 mice were stimulated by neurokinin B (NKB) in vitro, and the expression levels of Grp mRNA and Nppb mRNA were analyzed.

For assay [5], the system named is Tac2−/− (Δ4) mice. As to the kind of experiment: Scratching behavior after injecting NKB into medullary cavities. The format is in vivo, mouse. As to conditions: FIG. 10(a). Here is the method: Next, in order to identify the site where NKB was functioning. NKB was injected into medullary cavities of Tac2^−/− (Δ4) mice, and scratching behavior was analyzed.
Assay [6] has as its system Nppb mRNA. Briefly: Nppb mRNA expression in stimulated DRG neurons in vitro. It is filed as cell-based, mouse. The following applies: DRG neurons from wild-type C57BL/6 mice stimulated with NKB in vitro; FIG. 4(b). As for the experimental part: as §5, §6, §7
[7] abbreviates: 30 mg/kg intraperitoneal, FIGS. 13(a), 14(a).
Setting [8] is: 30 mg/kg intraperitoneal, FIGS. 13(b), 14(b).
The mark [9] stands for this setting: SSR-241586 3 mg/kg intraperitoneal, CS-003 3 mg/kg intravenous, FIGS. 16(a), 17(a).

Consider `CC[C@H](NC(=O)c1c(O)c(-c2ccccc2)nc2ccccc12)c1ccccc1` [talnetant, N-(α-ethylbenzyl)-3-hydroxy-2-phenylquinoline-4-carboxamide], for which the “frequency of scratching behavior induced by IL-31” value in assay [1] (setting [7]) is listed as “did decrease”. Moreover, in assay [2] (setting [8]), the “frequency of scratching behavior by chloroquine” value (shortened to “frequency … by chloroquine”) was “did not decrease”.
For the compound `CC(=O)N(C)C1(c2ccccc2)CCN(CCC[C@]2(c3ccc(Cl)c(Cl)c3)CCCN(C(=O)c3ccccc3)C2)CC1` [osanetant, N-[1-[3-[(3R)-1-benzoyl-3-(3,4-dichlorophenyl)piperidine-3-yl)propyl)-4-phenylpiperidine-4-yl]-N-methyl acetamide], in assay [1] (osanetant 5 mg/kg intraperitoneal, FIG. 11(c)), the “frequency of scratching behavior by IL-31” value is recorded as “decreased”. The “frequency … by chloroquine” value in assay [2] (osanetant 5 mg/kg intraperitoneal, FIG. 11(e)) was “did not decrease”. Moreover, the “frequency of scratching behavior by histamine” value in assay [3] (osanetant 5 mg/kg intraperitoneal, FIG. 11(d)) is given as “did not decrease”.
Turning to “NKB: mature neurokinin B, neuropeptide from PPT-3 (Tac2 gene), SEQ ID NO: 2; binds neurokinin receptor 3 (DMHDFFVGLM; listed as Homo sapiens)”, the “expression level of Grp mRNA” value in assay [4] is on record as “increased”. The “scratching behavior after intramedullary injection of NKB” value in assay [5] is listed as “induced the scratching behavior”. In addition, the “expression level of Nppb mRNA” value in assay [6] is “increased”.
As for `CC[C@H](NC(=O)c1c(NS(C)(=O)=O)c(-c2ccccc2)nc2ccccc12)c1ccccc1` [pavinetant], the “frequency of scratching behavior induced by IL-31” value in assay [1] (setting [7]) was “did decrease”. Moreover, the “frequency … by chloroquine” value in assay [2] (setting [8]) is “did not decrease”.
With `COc1cc(C(=O)N2CCO[C@](CCN3CCC4(CC3)c3ccccc3C[S@+]4[O-])(c3ccc(Cl)c(Cl)c3)C2)cc(OC)c1OC` [CS-003], the “frequency of scratching behavior induced by IL-31” value in assay [1] (setting [9]) is “suppressed”.
With `CC[C@H](NC(=O)c1c(OCC(=O)O)c(-c2ccccc2)nc2ccccc12)c1ccccc1` [SB-235375, 2-[2-phenyl-4-[N-[1 (S)-phenylpropyl]carbamoyl]quinoline-3-yloxy]acetic acid], the “frequency of scratching behavior induced by IL-31” value in assay [1] (3 mg/kg oral, FIG. 18(a)) is “did decrease”. For the same compound, in assay [2] (3 mg/kg oral, FIG. 18(b)), the “frequency … by chloroquine” value is “did not decrease”.
With `CN(C)C(=O)C1(N2CCCCC2)CCN(CC[C@@]2(c3ccc(Cl)c(Cl)c3)CN(C(=O)c3ccccc3)CCO2)CC1` [SSR-241586, (+)-1′-[2-[4-benzoyl-2(R)-(3,4-dichlorophenyl)morpholine-2-yl]ethyl]-N,N-dimethyl-1,4′-bipiperidin-4′-carboxamide], the “frequency of scratching behavior induced by IL-31” value in assay [1] (setting [9]) is “suppressed”.
With `Cc1nsc(-c2nnc3n2CCN(C(=O)c2ccc(F)cc2)[C@@H]3C)n1` [fezolinetant, (4-fluorophenyl)-[(8R)-8-methyl-3-(3-methyl-1,2,4-thiadiazole-5-yl)-6,8-dihydro-5H-[1,2,4]triazolo[4,3-a]pyrazine-7-yl]-methanone], the “frequency of scratching behavior by IL-31” value in assay [1] (fezolinetant 10 mg/kg oral, FIG. 12(a)) is “decreased”. The “frequency … by chloroquine” value in assay [2] (fezolinetant 10 mg/kg oral, FIG. 12(c)) is “did not decrease”. Moreover, the “frequency of scratching behavior by histamine” value in assay [3] (fezolinetant 10 mg/kg oral, FIG. 12(b)) is on record as “did not decrease”.

For the origin of these results see patent US20210401821A1, “PROPHYLACTIC OR THERAPEUTIC AGENT AND MEDICINAL COMPOSITION FOR IL-31-MEDIATED DISEASE” (Kyushu University, National University Corporation, priority 2018, published 2021).
